According to patent publication US20250059179A1, “Heterocyclic Compounds and Methods of Use” (AMGEN INC., priority 2021, published 2025):
Like-named read-outs stand apart in the source and are kept apart here.

Assays:
[1] = target: His-tagged KRAS G12D protein (Homo sapiens, UniProt P01116, G12D); test: KRAS G12D TR-FRET Assay; type: binding; conditions: biotinylated KRPep-2d substrate, 10 μM GDP;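 further: europium anti-His antibody paired with streptavidin-d2 as FRET partners, initial 30 min incubation, then peptide 1 h and detection reagents 1 h, all at room temperature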
Sequence of His-tagged KRAS G12D protein (P01116 1-188 isoform P01116-2 G12D): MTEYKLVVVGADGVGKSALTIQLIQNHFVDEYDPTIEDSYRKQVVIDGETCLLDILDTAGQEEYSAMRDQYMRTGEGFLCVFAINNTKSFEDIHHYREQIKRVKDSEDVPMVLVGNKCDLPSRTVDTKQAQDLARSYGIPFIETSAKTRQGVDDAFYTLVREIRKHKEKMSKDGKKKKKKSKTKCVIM

[2] = target: GDP-bound KRAS protein (aa 1-169), containing both G12D and C118A amino acid substitutions (Homo sapiens, UniProt P01116, C118A/G12D); test: KRAS G12D Coupled Nucleotide Exchange Assay; type: biochemical; conditions: 2 h compound pre-incubation; SOS-mediated nucleotide exchange, cRAF AlphaScreen readout;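 further: IC50 obtained by fitting the AlphaScreen signal with a four-parameter logistic curve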
Sequence of GDP-bound KRAS protein (aa 1-169), containing both G12D and C118A amino acid substitutions (P01116 1-169 isoform P01116-2 G12D/C118A): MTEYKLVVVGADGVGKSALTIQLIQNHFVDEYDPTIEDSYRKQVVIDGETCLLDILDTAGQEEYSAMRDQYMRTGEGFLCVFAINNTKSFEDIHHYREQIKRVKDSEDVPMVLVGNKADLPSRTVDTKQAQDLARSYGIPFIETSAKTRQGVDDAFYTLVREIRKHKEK

[3] = tested on: Phosphorylation of ERK1/2 in A-427 cells; test: Phospho-ERK1/2 MSD Assay; type: cell-based; conditions: 2 h compound treatment, read-out: pERK (A427 cells) IC50
Method: A-427 (ATCC® HTB-53™) cells were cultured in RPMI 1640 Medium (ThermoFisher Scientific 11875093) containing 10% fetal bovine serum (ThermoFisher Scientific 16000044) and 1× penicillin-streptomycin-glutamine (ThermoFisher Scientific 10378016). Sixteen hours prior to compound treatment, A-427 cells were seeded in 96-well cell culture plates at a density of 25,000 cells/well and incubated at 37° C., 5% CO2. A compound dose-response titration was diluted in growth media, added to appropriate wells of a cell culture plate, and then incubated at 37° C., 5% CO2 for 2 h. Following compound treatment, cells were washed with ice-cold Dulbecco's phosphate-buffered saline, no Ca^2+ or Mg^2+ (ThermoFisher Scientific 14190144), and then lysed in RIPA buffer (50 mM Tris-HCl pH 7.5, 1% Igepal, 0.5% sodium deoxycholate, 150 mM NaCl, and 0.5% sodium dodecyl sulfate) containing protease inhibitors (Roche 4693132001) and phosphatase inhibitors (Roche 4906837001). Phosphorylation of ERK1/2 in compound-treated lysates was assayed using Phospho-ERK1/2 Whole Cell Lysate kits (Meso Scale Discovery K151DWD) according to the manufacturer's protocol. Assay plates were read on a Meso Scale Discovery Sector Imager 6000, and data were analyzed using a 4-parameter logistic model to calculate IC50 values.

## Nc1nc2c(-c3c(Cl)cc4c(N5CCCNC(=O)C5)nc(OC[C@@]56CCCN5C[C@H](F)C6)nc4c3F)ccc(F)c2s1 [Example 4, 4-(7-(2-amino-7-fluorobenzo[d]thiazol-4-yl)-6-chloro-8-fluoro-2-(((2R,7aS)-2-fluorotetrahydro-1H-pyrrolizin-7a(5H)-yl)methoxy)quinazolin-4-yl)-1,4-diazepan-2-one]
[1]
  IC50: 10 nM
[2]
  Avg 2 h Coupled Exchange IC50: 5 nM
[3]; Homo sapiens, A-427, 2 h
  IC50: 4900 nM

## C[C@]1(COc2nc(N3CCNCC3)c3cc(Cl)c(-c4cccc5sc(N)nc45)c(F)c3n2)CCCN1 [Example 74, 4-(6-chloro-8-fluoro-2-(((R)-2-methyl-pyrrolidin-2-yl)methoxy)-4-(piperazin-1-yl)quinazolin-7-yl)benzo[d] thiazol-2-amine]
[1]
  IC50: 228 nM
[2]
  Avg 2 h Coupled Exchange IC50: 122 nM
[3]; Homo sapiens, A-427, 2 h
  IC50: > 10000 nM

## N#Cc1c(OCC23CCCN2C[C@H](F)C3)nc2c(F)c(-c3ccc(F)c4sc(N)nc34)c(Cl)cc2c1N1[C@@H]2CC[C@H]1CNC2 (stereo partly drawn) [Example 159, 7-(2-amino-7-fluorobenzo[d]thiazol-4-yl)-4-((1R,5S)-3,8-diazabicyclo[3.2.1]octan-8-yl)-6-chloro-8-fluoro-2-(((2R)-2-fluorotetrahydro-1H-pyrrolizin-7a(5H)-yl)methoxy)quinoline-3-carbonitrile]
[1]
  IC50: 174 nM
[2]
  Avg 2 h Coupled Exchange IC50: 88 nM
[3]; Homo sapiens, A-427, 2 h
  IC50: > 10000 nM

## CN1CC[C@H]1COc1nc(N2CCNCC2)c2cc(Cl)c(-c3cccc4sc(N)nc34)c(F)c2n1 [Example 52, 4-(6-chloro-8-fluoro-2-(((S)-1-methylazetidin-2-yl)methoxy)-4-(piperazin-1-yl)quinazolin-7-yl)benzo[d] thiazol-2-amine]
[1]
  IC50: 134 nM
[2]
  Avg 2 h Coupled Exchange IC50: 59 nM
[3]; Homo sapiens, A-427, 2 h
  IC50: 16000 nM

## CN1CC[C@@H]1COc1nc(N2CCNCC2)c2cc(Cl)c(-c3cccc4sc(N)nc34)c(F)c2n1 [Example 58, 4-(6-chloro-8-fluoro-2-(((R)-1-methylazetidin-2-yl)methoxy)-4-(piperazin-1-yl)quinazolin-7-yl)benzo[d] thiazol-2-amine]
[1]
  IC50: 444 nM
[2]
  Avg 2 h Coupled Exchange IC50: 176 nM
[3]; Homo sapiens, A-427, 2 h
  IC50: 18200 nM

## CN1C[C@H](F)C[C@H]1COc1nc(N2C[C@H]3C[C@@H](C2)N3)c2cc(Cl)c(-c3ccc(F)c4sc(N)nc34)c(F)c2n1 [Example 7, 4-(4-((1R,5S)-3,6-diazabicyclo[3.1.1]heptan-3-yl)-6-chloro-8-fluoro-2-(((2S,4R)-4-fluoro-1-methylpyrrolidin-2-yl)methoxy)quinazolin-7-yl)-7-fluorobenzo[d] thiazol-2-amine]
[1]
  IC50: 12 nM
[2]
  Avg 2 h Coupled Exchange IC50: 6 nM
[3]; Homo sapiens, A-427, 2 h
  IC50: 531 nM

## Nc1nc2c(-c3c(Cl)cc4c(N5C[C@H]6CC[C@@H](C5)N6)nc(OC[C@]56CCCN5C[C@H](F)C6)nc4c3F)ccc(F)c2s1 [Example 136, 4-(4-((1R,5S)-3,8-diazabicyclo[3.2.1]octan-3-yl)-6-chloro-8-fluoro-2-(((2R,7aR)-2-fluorotetrahydro-1H-pyrrolizin-7a(5H)-yl)methoxy)quinazolin-7-yl)-7-fluorobenzo[d]thiazol-2-amine]
[1]
  IC50: 1 nM
[2]
  Avg 2 h Coupled Exchange IC50: 1 nM
[3]; Homo sapiens, A-427, 2 h
  IC50: 33 nM

## Nc1nc2c(-c3c(Cl)cc4c(N5C6CCNCC5CC6)nc(OC[C@@]56CCCN5C[C@H](F)C6)nc4c3F)ccc(F)c2s1 (single isomer, unassigned) [Example 32]
[1]
  IC50: 54 nM
[2]
  Avg 2 h Coupled Exchange IC50: 16 nM
[3]
  IC50: 164 nM

## Nc1nc2c(-c3c(Cl)cc4c(N5[C@@H]6CNC[C@H]5COC6)nc(OC[C@@]56CCCN5C[C@H](F)C6)nc4c3F)ccc(F)c2s1 [Example 122, 4-(4-((1R,5S)-3-Oxa-7,9-diazabicyclo[3.3.1]nonan-9-yl)-6-chloro-8-fluoro-2-(((2R,7aS)-2-fluorotetrahydro-1H-pyrrolizin-7a(5H)-yl)methoxy)quinazolin-7-yl)-7-fluorobenzo[d]thiazol-2-amine]
[1]
  IC50: 4 nM
[2]
  Avg 2 h Coupled Exchange IC50: 3 nM
[3]; Homo sapiens, A-427, 2 h
  IC50: 167 nM

## Nc1nc2c(-c3c(Cl)cc4c(N5CCNCC5)nc(OC[C@@H]5CCCN5CCF)nc4c3F)cccc2s1 [Example 56, 4-(6-chloro-8-fluoro-2-(((S)-1-(2-fluoroethyl)pyrrolidin-2-yl)methoxy)-4-(piperazin-1-yl)quinazolin-7-yl)benzo[d] thiazol-2-amine]
[1]
  IC50: 266 nM
[2]
  Avg 2 h Coupled Exchange IC50: 118 nM
[3]; Homo sapiens, A-427, 2 h
  IC50: 5670 nM

## CCc1cc2c(N3[C@@H]4CC[C@H]3CNC4)nc(OC[C@@]34CCCN3C[C@H](F)C4)nc2c(F)c1-c1ccc(F)c2sc(N)nc12 [Example 154, 4-(4-((1R,5S)-3,8-diazabicyclo[3.2.1]octan-8-yl)-6-ethyl-8-fluoro-2-(((2R,7aS)-2-fluorotetrahydro-1H-pyrrolizin-7a(5H)-yl)methoxy)quinazolin-7-yl)-7-fluorobenzo[d]thiazol-2-amine]
[1]
  IC50: 4 nM
[2]
  Avg 2 h Coupled Exchange IC50: 4 nM
[3]; Homo sapiens, A-427, 2 h
  IC50: 55 nM

## Nc1nc2c(-c3c(Cl)cc4c(N5CCNC6CC65)nc(OC[C@@]56CCCN5C[C@H](F)C6)nc4c3F)ccc(F)c2s1 (stereo partly drawn) [Example 39, 4-(4-(2,5-diazabicyclo[4.1.0]heptan-2-yl)-6-chloro-8-fluoro-2-(((2R,7aS)-2-fluorotetrahydro-1H-pyrrolizin-7a(5H)-yl)methoxy)quinazolin-7-yl)-7-fluorobenzo[d] thiazol-2-amine]
[1]
  IC50: 11 nM
[2]
  Avg 2 h Coupled Exchange IC50: 14 nM
[3]; Homo sapiens, A-427, 2 h
  IC50: 977 nM

## Nc1nc2c(-c3c(Cl)cc4c(N5CCNCC5)nc(OC[C@@H]5CCCN5)nc4c3F)cccc2s1 [Example 72, 4-(6-chloro-8-fluoro-4-(piperazin-1-yl)-2-(((S)-pyrrolidin-2-yl)methoxy)quinazolin-7-yl)benzo[d] thiazol-2-amine]
[1]
  IC50: 112 nM
[2]
  Avg 2 h Coupled Exchange IC50: 63 nM
[3]; Homo sapiens, A-427, 2 h
  IC50: > 10000 nM

## CN1CCC[C@H]1COc1nc2c(F)c(-c3cccc4sc(N)nc34)c(Cl)cc2c(N2CCNCC2)c1C#N [Example 158, 7-(2-aminobenzo[d]thiazol-4-yl)-6-chloro-8-fluoro-2-(((S)-1-methylpyrrolidin-2-yl)methoxy)-4-(piperazin-1-yl)quinoline-3-carbonitrile]
[1]
  IC50: 414 nM
[2]
  Avg 2 h Coupled Exchange IC50: 87 nM
[3]; Homo sapiens, A-427, 2 h
  IC50: 3290 nM

## Nc1nc2c(-c3c(Cl)cc4c(N5CCNCC5)nc(OC[C@@H]5C[C@@H](F)CN5)nc4c3F)cccc2s1 [Example 47, 4-(6-chloro-8-fluoro-2-(((2S,4R)-4-fluoro-pyrrolidin-2-yl)methoxy)-4-(piperazin-1-yl)quinazolin-7-yl)benzo[d] thiazol-2-amine]
[1]
  IC50: 81 nM
[2]
  Avg 2 h Coupled Exchange IC50: 26 nM
[3]; Homo sapiens, A-427, 2 h
  IC50: > 25000 nM

## Nc1nc2c(-c3c(Cl)cc4c(N5C[C@H]6CC[C@@H](C5)N6)nc(OC[C@@]56CCCN5C[C@H](F)C6)nc4c3F)ccc(F)c2s1 [Example 137, 4-(4-((1R,5S)-3,8-diazabicyclo[3.2.1]octan-3-yl)-6-chloro-8-fluoro-2-(((2R,7aS)-2-fluorotetrahydro-1H-pyrrolizin-7a(5H)-yl)methoxy)quinazolin-7-yl)-7-fluorobenzo[d]thiazol-2-amine]
[1]
  IC50: 3 nM
[2]
  Avg 2 h Coupled Exchange IC50: 2 nM
[3]; Homo sapiens, A-427, 2 h
  IC50: 8 nM
